Measured values reported in ChEMBL document CHEMBL1201862, “PubChem BioAssay data set” (2004).
Activity calls are given as the source filed them.

What was measured:
[1] = target: Mucolipin-3 (Homo sapiens, UniProt Q8TDD5); experiment: Dose response cell-based high-throughput screening assay for agonists of the transient receptor potential channel ML3 (TRPML3). [Related pubchem assays: 1526, 1424, 1448 ]; type: functional
[2] = target: Ion channel NompC (Danio rerio, UniProt Q7T1G6); experiment: Fluorescence counterscreen assay for TRPML3 agonists: dose response cell-based high-throughput screening assay to identify agonists of the transient receptor potential channel N1 (TRPN1). [Related pubchem assays: 1526, 1424, 1448 ]; type: functional
[3] = A High Throughput Confirmatory Assay used to Identify Novel Compounds that Inhibit Mycobacterium Tuberculosis in the absence of Glycerol.; type: functional
[4] = antiviral protection against BTV-induced cell death – arbovirus, BSR cells, confirmation (AID 1250); type: functional;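 further: protection from viral cytopathic effect measured as cell viability by ATP luminescence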
[5] = target: T1, Bcl-2-like protein 10 (Homo sapiens, UniProt Q9HD36); experiment: Bcl-B/TR3 peptide binding disruption – biochemical, fluorescence polarization, FITC-TR3 peptide, selectivity assay for Bfl-1 inhibitor project, primary screen (AID 748);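 further: fluorescence polarization from a fluorescein-labelled TR3 peptide binding purified Bcl-B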
T1 sequence (Q9HD36 whole entry): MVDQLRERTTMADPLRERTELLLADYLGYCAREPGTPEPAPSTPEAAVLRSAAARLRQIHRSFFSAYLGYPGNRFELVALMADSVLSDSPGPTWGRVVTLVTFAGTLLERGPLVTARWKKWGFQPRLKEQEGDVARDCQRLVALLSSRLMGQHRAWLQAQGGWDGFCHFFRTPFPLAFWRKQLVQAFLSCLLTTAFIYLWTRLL

[6] = target: T2, Estrogen receptor beta (Homo sapiens, UniProt Q92731);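 further: recombinant ER-beta bound to coactivator SRC1 peptide in presence of estradiol agonist; inhibitors block coactivator peptide binding and lower the FRET signal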
[7] = target: T2, Estrogen receptor beta; experiment: blockers of SRC-3 recruitment to ERβ – biochemical, ELISA, streptavidin-HRP readout, orthogonal assay, confirmation (AID 1060)
[8] = target: SUMO E1/E2 (Homo sapiens, UniProt P63279+Q9UBE0+Q9UBT2); experiment: SAR analysis of SUMOylation using HTRF in an in-Vitro dose response assay. [Related pubchem assays (depositor defined):AID2006, AID2011, AID2018, AID2069, AID2658]; type: functional
[9] = target: T3, Voltage-gated N-type calcium channel alpha-1B subunit/Amyloid beta A4 precursor protein-binding family A member 1 (Homo sapiens, UniProt Q00975+Q02410); experiment: disruptors of Mint-PDZ/N-type channel peptide interaction – biochemical, HTRF, set 2, SAR follow-up (AID 434980); type: functional
[10] = target: T3, Voltage-gated N-type calcium channel alpha-1B subunit/Amyloid beta A4 precursor protein-binding family A member 1; experiment: disruptors of Mint-PDZ/N-type channel peptide interaction – biochemical, HTRF, SAR follow-up (AID 2489); type: functional
[11] = target: Sphingosine 1-phosphate receptor 2 (Homo sapiens, UniProt O95136); experiment: Dose Response Cell Based Assay for Agonists of the S1P2 Receptor of Purchased Analogues. [Related pubchem assays: 729, 843, 854, 736 ]; type: functional
[12] = target: T4, Dual specificity protein phosphatase 6 (Rattus norvegicus, UniProt Q64346); experiment: inhibition of rat DUSP6 enzyme activity – biochemical, in vitro, primary screen (AID 425)
T4 sequence (Q64346 whole entry): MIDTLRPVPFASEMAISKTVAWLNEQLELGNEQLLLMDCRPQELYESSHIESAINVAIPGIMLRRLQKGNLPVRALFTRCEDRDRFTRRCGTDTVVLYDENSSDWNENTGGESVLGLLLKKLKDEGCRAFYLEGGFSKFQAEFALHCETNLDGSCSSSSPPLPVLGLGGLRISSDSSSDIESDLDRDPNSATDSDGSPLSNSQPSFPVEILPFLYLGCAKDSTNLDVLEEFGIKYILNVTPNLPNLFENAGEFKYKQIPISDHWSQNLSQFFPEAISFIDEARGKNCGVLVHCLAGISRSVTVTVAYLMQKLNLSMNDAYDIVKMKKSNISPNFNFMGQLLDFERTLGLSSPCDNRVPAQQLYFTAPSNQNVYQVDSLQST

[13] = target: T5, Apoptotic protease-activating factor 1 (Homo sapiens, UniProt O14727); type: functional
T5 sequence (O14727 whole entry): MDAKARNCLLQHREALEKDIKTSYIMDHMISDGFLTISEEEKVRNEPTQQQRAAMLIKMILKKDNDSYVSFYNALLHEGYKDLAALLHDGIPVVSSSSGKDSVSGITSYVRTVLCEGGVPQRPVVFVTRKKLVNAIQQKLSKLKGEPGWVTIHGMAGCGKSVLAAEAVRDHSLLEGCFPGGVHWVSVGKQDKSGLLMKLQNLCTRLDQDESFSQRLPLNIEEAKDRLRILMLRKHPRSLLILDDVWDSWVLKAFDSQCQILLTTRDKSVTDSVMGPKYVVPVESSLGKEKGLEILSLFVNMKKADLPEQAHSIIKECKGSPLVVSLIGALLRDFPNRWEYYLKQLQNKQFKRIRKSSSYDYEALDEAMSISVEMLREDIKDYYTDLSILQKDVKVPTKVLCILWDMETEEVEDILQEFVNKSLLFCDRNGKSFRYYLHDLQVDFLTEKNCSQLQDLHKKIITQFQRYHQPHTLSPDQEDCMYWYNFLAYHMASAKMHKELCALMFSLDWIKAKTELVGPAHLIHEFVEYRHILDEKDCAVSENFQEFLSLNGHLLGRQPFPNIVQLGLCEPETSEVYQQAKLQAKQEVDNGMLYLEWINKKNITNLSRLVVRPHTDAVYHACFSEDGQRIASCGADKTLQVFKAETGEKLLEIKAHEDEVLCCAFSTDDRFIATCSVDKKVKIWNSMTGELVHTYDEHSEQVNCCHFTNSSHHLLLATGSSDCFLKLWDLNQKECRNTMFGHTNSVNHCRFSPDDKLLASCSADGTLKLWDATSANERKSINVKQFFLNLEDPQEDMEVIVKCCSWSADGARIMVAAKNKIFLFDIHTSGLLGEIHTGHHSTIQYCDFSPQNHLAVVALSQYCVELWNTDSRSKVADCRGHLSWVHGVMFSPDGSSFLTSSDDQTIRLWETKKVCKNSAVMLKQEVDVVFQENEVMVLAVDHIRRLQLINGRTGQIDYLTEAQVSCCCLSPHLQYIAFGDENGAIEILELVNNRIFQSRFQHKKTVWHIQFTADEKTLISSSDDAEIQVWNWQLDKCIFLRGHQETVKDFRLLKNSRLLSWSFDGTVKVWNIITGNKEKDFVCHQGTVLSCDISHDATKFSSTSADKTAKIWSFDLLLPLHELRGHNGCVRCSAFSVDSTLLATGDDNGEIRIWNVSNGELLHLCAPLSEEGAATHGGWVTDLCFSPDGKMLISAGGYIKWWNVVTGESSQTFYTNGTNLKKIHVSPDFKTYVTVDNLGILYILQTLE

[14] = target: T6, Histone-lysine N-methyltransferase NSD2 (Homo sapiens, UniProt O96028); type: biochemical
T6 sequence (O96028 whole entry): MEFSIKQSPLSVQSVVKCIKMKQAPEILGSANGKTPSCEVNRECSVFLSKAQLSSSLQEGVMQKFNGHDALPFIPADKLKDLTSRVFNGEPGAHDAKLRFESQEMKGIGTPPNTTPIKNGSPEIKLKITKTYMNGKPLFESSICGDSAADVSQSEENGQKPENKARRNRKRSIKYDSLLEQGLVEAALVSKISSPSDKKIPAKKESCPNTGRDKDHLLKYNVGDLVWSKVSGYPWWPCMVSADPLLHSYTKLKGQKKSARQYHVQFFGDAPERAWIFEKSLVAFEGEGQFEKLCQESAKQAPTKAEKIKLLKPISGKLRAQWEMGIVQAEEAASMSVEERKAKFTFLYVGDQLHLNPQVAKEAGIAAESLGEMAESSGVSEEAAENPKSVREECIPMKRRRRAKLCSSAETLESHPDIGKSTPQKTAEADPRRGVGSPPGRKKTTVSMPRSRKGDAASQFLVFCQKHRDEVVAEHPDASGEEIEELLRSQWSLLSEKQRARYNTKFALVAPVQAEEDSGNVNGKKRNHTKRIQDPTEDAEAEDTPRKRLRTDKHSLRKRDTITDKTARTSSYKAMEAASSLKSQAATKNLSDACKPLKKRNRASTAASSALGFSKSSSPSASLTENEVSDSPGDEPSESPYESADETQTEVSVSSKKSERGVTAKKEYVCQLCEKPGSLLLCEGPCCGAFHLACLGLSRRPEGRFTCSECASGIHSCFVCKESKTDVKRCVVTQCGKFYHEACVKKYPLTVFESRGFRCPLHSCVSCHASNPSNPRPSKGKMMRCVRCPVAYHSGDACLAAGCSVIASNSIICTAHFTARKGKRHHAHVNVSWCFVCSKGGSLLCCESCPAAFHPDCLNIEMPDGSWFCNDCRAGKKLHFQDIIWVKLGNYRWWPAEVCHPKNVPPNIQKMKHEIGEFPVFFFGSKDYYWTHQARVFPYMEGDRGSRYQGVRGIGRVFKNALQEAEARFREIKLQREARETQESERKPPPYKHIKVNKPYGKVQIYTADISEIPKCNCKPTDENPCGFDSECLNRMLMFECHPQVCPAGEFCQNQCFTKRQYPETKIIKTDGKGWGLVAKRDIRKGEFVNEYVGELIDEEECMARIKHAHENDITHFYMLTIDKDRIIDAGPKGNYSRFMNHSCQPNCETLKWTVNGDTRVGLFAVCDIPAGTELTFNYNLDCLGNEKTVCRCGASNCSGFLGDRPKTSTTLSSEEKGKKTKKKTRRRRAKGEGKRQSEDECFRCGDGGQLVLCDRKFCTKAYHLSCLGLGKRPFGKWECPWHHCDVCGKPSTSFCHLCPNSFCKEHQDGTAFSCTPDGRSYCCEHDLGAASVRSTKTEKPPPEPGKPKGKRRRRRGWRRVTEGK

[15] = target: T7, RNA-editing ligase 1, mitochondrial (Trypanosoma brucei brucei, UniProt P86926); experiment: inhibition of trypanosome RNA editing ligase – biochemical, fluorescence, Trypanosoma brucei, dose response (AID 1117295); type: functional
T7 sequence (P86926 whole entry): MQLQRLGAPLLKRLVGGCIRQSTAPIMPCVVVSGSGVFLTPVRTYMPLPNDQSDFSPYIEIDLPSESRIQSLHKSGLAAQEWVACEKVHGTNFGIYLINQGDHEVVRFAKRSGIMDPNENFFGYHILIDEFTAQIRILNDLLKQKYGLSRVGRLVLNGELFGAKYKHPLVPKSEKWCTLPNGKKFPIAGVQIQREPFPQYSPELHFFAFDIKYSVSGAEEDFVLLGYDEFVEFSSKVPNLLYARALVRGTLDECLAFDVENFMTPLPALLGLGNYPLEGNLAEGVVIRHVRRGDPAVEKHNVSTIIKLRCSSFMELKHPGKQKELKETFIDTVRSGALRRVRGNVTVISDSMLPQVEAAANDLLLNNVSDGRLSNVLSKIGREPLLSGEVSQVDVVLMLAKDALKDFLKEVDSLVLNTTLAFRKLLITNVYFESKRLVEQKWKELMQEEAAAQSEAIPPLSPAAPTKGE

[16] = microbe, parasite or virus in culture; type: functional; settings: Mycobacterium tuberculosis
[17] = target: T8, Estrogen receptor (Homo sapiens, UniProt P03372);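 further: potency for inhibiting coactivator peptide recruitment to the receptor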
T8 sequence (P03372 whole entry): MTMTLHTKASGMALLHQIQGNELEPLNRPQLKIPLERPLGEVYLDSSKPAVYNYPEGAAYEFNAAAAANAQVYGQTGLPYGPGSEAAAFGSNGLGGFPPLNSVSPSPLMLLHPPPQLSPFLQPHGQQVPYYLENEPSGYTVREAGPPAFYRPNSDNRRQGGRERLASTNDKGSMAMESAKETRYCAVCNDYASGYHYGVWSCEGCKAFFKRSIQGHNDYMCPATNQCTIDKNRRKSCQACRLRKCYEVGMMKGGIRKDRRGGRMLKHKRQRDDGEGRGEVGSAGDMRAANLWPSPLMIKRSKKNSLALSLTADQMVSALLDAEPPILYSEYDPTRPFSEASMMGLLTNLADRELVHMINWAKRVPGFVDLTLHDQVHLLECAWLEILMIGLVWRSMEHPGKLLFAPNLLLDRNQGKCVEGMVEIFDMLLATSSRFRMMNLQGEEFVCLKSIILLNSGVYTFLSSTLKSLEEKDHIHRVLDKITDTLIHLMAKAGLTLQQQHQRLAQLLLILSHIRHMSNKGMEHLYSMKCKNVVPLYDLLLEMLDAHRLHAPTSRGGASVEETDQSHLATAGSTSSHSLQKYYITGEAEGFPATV

T2 sequence (Q92731 whole entry): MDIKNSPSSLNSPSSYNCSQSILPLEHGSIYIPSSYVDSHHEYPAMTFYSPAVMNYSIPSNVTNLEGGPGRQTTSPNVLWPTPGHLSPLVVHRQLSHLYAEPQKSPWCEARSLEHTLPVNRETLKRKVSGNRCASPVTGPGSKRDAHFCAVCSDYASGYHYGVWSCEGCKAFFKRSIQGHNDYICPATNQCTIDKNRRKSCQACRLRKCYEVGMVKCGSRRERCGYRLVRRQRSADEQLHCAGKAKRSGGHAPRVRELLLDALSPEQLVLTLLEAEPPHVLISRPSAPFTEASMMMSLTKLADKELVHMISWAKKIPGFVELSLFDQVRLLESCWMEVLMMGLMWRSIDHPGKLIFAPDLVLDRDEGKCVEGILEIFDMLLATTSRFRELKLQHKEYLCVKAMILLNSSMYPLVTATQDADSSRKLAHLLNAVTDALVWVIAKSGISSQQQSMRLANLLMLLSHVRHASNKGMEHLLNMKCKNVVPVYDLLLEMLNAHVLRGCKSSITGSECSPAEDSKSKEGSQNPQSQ
Chain of Sphingosine 1-phosphate receptor 2 (O95136 whole entry): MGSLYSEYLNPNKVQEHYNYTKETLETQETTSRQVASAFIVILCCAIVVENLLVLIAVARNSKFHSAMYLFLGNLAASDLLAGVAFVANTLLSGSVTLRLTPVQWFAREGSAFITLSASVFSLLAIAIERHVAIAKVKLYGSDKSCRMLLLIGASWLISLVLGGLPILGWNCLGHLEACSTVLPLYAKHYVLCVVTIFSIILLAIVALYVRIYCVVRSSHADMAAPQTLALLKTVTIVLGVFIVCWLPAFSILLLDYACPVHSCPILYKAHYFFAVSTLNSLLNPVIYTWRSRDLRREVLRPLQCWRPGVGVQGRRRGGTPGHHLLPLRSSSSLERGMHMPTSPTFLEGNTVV
T3 sequence (Q00975 whole entry): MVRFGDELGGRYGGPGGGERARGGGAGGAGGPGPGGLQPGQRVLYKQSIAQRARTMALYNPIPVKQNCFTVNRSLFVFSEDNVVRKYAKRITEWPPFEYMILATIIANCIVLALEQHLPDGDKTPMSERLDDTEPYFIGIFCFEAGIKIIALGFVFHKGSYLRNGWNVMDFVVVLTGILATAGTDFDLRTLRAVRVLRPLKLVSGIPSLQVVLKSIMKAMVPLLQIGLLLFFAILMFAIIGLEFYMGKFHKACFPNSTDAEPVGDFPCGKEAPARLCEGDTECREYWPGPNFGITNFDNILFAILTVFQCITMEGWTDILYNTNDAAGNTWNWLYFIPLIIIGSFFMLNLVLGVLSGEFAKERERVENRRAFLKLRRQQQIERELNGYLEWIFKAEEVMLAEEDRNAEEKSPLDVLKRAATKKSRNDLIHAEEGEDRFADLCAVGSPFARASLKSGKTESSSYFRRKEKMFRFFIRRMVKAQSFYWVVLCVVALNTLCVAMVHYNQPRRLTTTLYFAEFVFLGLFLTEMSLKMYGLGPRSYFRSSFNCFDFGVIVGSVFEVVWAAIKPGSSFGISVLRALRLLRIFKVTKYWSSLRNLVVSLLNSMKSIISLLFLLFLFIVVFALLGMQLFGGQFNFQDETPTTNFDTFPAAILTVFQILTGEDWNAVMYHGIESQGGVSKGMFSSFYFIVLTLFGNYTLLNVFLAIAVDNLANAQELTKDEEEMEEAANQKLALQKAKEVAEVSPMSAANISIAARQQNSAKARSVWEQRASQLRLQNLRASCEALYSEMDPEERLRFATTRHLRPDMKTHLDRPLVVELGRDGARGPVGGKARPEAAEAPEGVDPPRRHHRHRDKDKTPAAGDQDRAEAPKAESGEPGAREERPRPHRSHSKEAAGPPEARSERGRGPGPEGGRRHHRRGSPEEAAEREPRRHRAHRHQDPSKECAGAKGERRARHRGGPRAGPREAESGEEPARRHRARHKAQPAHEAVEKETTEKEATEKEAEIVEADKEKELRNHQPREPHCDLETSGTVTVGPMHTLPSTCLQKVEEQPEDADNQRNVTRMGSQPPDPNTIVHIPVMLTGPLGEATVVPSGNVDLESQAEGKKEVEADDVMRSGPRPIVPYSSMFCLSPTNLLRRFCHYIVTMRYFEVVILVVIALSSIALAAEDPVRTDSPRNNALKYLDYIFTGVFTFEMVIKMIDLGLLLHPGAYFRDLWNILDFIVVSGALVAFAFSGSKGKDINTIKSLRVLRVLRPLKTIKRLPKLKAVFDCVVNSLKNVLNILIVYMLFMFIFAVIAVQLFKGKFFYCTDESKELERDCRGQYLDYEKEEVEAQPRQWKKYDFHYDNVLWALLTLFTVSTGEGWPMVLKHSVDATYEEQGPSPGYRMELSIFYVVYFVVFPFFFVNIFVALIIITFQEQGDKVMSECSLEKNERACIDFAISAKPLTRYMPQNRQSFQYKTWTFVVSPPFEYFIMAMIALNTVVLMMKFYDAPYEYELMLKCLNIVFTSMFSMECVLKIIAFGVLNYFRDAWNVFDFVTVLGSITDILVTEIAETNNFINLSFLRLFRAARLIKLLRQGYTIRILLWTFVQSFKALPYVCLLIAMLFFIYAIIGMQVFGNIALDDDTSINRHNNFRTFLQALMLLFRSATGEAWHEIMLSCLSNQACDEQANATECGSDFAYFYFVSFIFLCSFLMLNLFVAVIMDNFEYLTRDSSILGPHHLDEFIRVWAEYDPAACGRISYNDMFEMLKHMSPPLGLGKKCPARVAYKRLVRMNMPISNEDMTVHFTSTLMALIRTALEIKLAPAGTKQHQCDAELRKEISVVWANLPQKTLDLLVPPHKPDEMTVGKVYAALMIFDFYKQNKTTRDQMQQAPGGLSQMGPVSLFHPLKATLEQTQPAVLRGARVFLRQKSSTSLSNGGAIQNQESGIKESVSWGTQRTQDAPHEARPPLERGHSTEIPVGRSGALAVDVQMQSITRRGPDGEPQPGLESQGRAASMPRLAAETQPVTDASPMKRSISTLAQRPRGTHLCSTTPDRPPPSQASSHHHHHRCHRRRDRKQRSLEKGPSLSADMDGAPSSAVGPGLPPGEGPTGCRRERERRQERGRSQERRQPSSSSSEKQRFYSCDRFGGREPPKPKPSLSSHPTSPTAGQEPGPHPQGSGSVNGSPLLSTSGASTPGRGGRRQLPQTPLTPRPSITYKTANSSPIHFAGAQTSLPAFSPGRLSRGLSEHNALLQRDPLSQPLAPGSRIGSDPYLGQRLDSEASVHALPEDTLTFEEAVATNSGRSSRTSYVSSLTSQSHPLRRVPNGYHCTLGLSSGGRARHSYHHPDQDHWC
T3 sequence (Q02410 whole entry): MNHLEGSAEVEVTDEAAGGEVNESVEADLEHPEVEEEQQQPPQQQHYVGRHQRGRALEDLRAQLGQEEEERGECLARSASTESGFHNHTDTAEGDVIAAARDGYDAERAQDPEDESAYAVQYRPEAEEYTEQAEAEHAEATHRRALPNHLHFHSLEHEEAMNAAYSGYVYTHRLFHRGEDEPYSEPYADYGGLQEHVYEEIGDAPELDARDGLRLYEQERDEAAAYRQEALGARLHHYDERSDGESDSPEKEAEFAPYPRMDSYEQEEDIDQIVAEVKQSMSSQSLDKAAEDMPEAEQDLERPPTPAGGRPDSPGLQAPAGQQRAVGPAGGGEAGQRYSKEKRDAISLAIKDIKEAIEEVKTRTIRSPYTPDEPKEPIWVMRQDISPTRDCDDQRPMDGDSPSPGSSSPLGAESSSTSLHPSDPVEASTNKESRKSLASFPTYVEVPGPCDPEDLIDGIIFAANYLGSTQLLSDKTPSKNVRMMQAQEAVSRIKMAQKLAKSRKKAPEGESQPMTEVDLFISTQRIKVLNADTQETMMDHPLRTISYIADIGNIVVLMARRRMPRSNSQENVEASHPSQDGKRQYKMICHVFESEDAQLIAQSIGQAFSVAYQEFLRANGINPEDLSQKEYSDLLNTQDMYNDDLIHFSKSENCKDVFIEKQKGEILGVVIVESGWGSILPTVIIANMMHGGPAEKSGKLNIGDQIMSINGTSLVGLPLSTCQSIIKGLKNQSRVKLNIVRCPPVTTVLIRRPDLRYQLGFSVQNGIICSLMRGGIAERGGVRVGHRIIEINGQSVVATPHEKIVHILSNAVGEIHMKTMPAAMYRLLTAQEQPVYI
Chain of Mucolipin-3 (Q8TDD5 whole entry): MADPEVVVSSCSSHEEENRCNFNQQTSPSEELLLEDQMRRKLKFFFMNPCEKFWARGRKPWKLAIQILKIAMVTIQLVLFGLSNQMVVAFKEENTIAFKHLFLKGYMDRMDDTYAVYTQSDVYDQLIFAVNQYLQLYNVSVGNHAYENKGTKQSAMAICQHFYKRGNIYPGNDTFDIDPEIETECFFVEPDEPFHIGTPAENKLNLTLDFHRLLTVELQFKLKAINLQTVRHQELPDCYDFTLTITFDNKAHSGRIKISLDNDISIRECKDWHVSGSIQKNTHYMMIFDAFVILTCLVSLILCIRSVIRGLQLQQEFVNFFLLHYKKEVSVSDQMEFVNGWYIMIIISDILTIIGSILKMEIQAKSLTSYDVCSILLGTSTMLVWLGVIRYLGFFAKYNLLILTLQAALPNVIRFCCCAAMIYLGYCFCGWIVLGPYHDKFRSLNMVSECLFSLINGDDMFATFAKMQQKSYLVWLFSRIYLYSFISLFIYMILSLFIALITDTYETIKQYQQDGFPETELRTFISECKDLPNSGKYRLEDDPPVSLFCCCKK

SMILES: CN(c1ccccc1)S(=O)(=O)c1cccc(Cl)c1Cl
- EC50 [1]: 4.52 µM (active)
- EC50 [2]: > 29.9 µM (not active)

SMILES: Cn1c(=O)n(Cc2ccccc2)c(=O)c2c1nc1n2CCCN1C1CCCCC1
- IC50 [3]: > 100 µM (active)

SMILES: CCOC(=O)c1cnc2c(-c3ccc(F)cc3)cnn2c1C(F)(F)F
- IC50 [4]: 23.1 µM (active)

SMILES: COc1cccc(CN(CC2CCCO2)S(=O)(=O)c2ccc(S(=O)(=O)N(C)C)cc2)c1 (stereo not drawn)
- EC50 [1]: > 29.9 µM (not active)
- EC50 [2]: > 29.9 µM (not active)

SMILES: O=C(Nc1ccccc1N1CCOCC1)c1cc(-c2ccco2)nc2ccccc12
- IC50 [5]: 95.1 µM (inactive)
- IC50 [6]: 3.78 µM (active)
- IC50 [7]: 1.04 µM (not active)
- IC50 [8]: 48.2 µM (active)
- IC50 [9]: 9.81 µM (active)
- IC50 [10]: 39.3 µM (active)

SMILES: Cc1cc(C(=O)CN2C(=O)C(=O)N(C)C2=O)c(C)n1Cc1ccccc1
- EC50 [11]: 22.3 µM (not active)

SMILES: CCCCNC(=O)c1c(N)n(CCCOC)c2nc3ccccc3nc12
- IC50 [12]: > 100 µM (not active)
- IC50 [13]: 27.7 µM (active)
- AC50 [14]: 8.05 µM (active)
- IC50 [15]: 17.9 µM (inactive)

SMILES: Cc1cc(C(=O)COC(=O)Cn2cnc3ccccc3c2=O)c(C)n1Cc1ccccc1
- EC50 [11]: > 30 µM (not active)

SMILES: COc1ccc([C@H]2CC(=O)C=C(c3ccc4c5c(cccc35)CC4)C2)cc1
- IC50 [3]: > 100 µM (active)
- CC50 [16]: > 40 µM (active)

SMILES: CCOC(=O)C1=c2/c(=C/c3ccccc3OC)c(N)c(C#N)n2C(=O)C(c2ccccc2OC)S1 (stereo not drawn)
- IC50 [17]: 9.8 µM (active)
- IC50 [6]: > 50 µM (not active)
- IC50 [7]: 78.5 µM (not active)
